Data: patent publication US11953435B2, “Zinc-responsive fluorophores” (Northwestern University, priority 2019, dated 2024)
“Also recorded” adds a separate entry of the source.

Target: BSA (Bos taurus, UniProt P02769)
Assay: Interaction of ZincBY probes with proteins (BSA): emission, absorbance, polarization
Type: binding
Details: for interaction with BSA (in words) / fluorescence turn-on in response to zinc in the presence of BSA / emission maximum in the presence of BSA: 10 mg/mL BSA; for fluorescence turn-on in response to zinc in the presence of BSA: holo vs apo; for polarization: apo and holo forms
Description: Aqueous solutions were prepared by using de-ionized water with resistivity […], obtained using a Milli-Q water purification system. In order to properly compare the photophysical properties of ZincBY-2, ZincBY-3, and ZincBY-4 to ZincBY-1, the photophysical properties of ZincBY-1 we remeasured. Tested values differed from the previously published values (Ref. B2; incorporated by reference in its entirety). It was determined that copper was present in the aqueous buffer used for in vitro analysis of the previous samples. The corrected values are used herein, utilizing buffers that are copper-free. Stock solutions of ZincBY-1, ZincBY-2, ZincBY-3, and ZincBY-4 were prepared at concentrations of 5 mM and stored at −20° C. in aliquots that were used immediately after thawing for each experiment. Unless otherwise stated, all spectroscopic methods were conducted in aqueous buffer containing 50 mM HEPES (pH 7.2) and 0.1 M KNO3. UV-visible spectra were acquired on a PerkinElmer Lambda 650 UV/Vis spectrophotometer using quartz cuvettes from Starna (1 cm path length, 10 cm path length used in extinction coefficient and quantum yield determination). Fluorescence spectra were acquired using a PerkinElmer LS 55 fluorescence spectrophotometer. For measurements containing zinc, 99.0% ZnNO3 hexahydrate (final concentration 5 μM) was used. For experiments analyzing apo probes, N,N,N′,N′-Tetrakis(2-pyridylmethyl)ethylenediamine (TPEN) (final concentration 5 μM) was added to solution. Quantum Yield and Extinction Coefficient Determination. Quantum yields for apo and holo ZincBY-1, ZincBY-2, ZincBY-3, and ZincBY-4 were determined by plotting absorbance vs. fluorescence intensity of solutions containing ZincBY-1, ZincBY-2, ZincBY-3, or ZincBY-4 at probe concentrations ranging from 50-250 nM. Serial dilution was used to make solutions at different concentrations. Fluorescein dissolved in 0.1 N NaOH was used as the quantum yield standard, using a literature-determined quantum yield of 0.95.^3 For all fluorophore solutions, fluorescence excitation was set at 490 nm and fluorescence emission was integrated from 510 nm to 650 nm. Zinc Dissociation Constant. Fluorescence spectra were recorded using zinc probes (ZincBY-1, ZincBY-2, ZincBY-3, or ZincBY-4; 200 nM) and ZnSO4 (various concentrations). The solutions were equilibrated in the dark for 1 h prior to measurement. The concentration of ZnSO4 was varied from 1 μM to 9 mM in buffer solution (50 mM HEPES and 0.1 M KNO3, and pH 7.2) containing 10 mM EGTA. Free Zn^2+ was calculated according to a previously reported method (Ref. B4; incorporated by reference in its entirety). Data was fit to the following one-site binding equation: F=(FminKd+Fmax[Zn^2+])/(Kd+[Zn^2+]) pH Response. The fluorescence spectra of zinc probes (ZincBY-2, ZincBY-3, or ZincBY-4; 200 nM) wasere measured at various pH values (4.5-11). The following buffers were used at 50 mM concentration with 0.1 M KNO3: NaOAc/AcOH (pH 4.0-4.5), MES (pH 5.0-6.5), HEPES (pH 7.0-8.0), CHES (pH 8.5-9.5), CAPS (pH 10.0-11.0). Metal Ion Response. The fluorescence spectra of zinc probes (ZincBY-2, ZincBY-3, or ZincBY-4; 200 nM) were measured in the presence an excess of metal ion including 1 mM KNO3, 1 mM NaNO3, 1 mM CaSO4, 1 mM MgSO4, 15 μM MnSO4, 15 μM (NH4)2Fe(SO4)2, 15 μM NH4Fe(SO4)2, 15 μM CoSO4, 15 μM NiSO4, 15 μM CuSO4, 15 μM [Cu(CH3CN)4]PF6, 15 μM CdSO4, 15 μM Hg(NO3)2, 15 μM Pb(NO3)2, or 15 μM ZnSO4. The fluorescence spectra were compared to that of ZincBY-2 (200 nM), ZincBY-3 (200 nM), or ZincBY-4 (200 nM) in the presence of 10 μM TPEN. Determination of octanol-water partition coefficients (log P). A log P value for each probe was determined by agitating nanomolar solutions of each probe in a 1:1 mixture of HEPES buffer and 1-octanol. Solutions were allowed to settle for 1 h and then the fluorescence intensity of each phase was measured. Standard curves of the fluorescence of known concentrations of probes in both solutions were used to determine concentrations. […]

Chain of BSA (P02769 25-607): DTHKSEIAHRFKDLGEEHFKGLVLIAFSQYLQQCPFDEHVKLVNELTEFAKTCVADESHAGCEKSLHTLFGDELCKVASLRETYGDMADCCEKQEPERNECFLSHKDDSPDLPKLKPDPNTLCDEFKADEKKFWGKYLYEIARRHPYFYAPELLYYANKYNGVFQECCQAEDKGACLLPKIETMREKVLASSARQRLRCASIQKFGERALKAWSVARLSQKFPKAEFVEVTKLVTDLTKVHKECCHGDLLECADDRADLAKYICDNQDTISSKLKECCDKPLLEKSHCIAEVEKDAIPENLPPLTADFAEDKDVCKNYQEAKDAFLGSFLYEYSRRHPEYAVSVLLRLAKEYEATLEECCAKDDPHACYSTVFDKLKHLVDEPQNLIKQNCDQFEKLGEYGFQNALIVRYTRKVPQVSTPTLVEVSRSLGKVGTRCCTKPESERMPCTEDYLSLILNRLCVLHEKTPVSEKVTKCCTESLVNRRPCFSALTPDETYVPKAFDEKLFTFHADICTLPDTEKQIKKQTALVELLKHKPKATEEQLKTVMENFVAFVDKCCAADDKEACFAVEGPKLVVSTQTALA

With COc1ccc2n1[B-](F)(F)[N+]1=C(N(CCN(Cc3ccccn3)Cc3ccccn3)Cc3ccccn3)C=CC1=C2c1c(C)cc(C)cc1C [ZincBY-1, reference compound] the “interaction with BSA (in words)” value was “The same interactions can be found” and the “fluorescence turn-on in response to zinc in the presence of BSA” value was “the fluorescence of apo-ZincBY-1 matches that of holo-ZincBY-1; also recorded: no fluorescence turn-on was observed”.

With Cc1cc(C)c(C2=C3C=CC(OCCN=[N+]=[N-])=[N+]3[B-](F)(F)n3c2ccc3N(CCN(Cc2ccccn2)Cc2ccccn2)Cc2ccccn2)c(C)c1 [ZincBY-2, N1-(7-(2-azidoethoxy)-5,5-difluoro-10-mesityl-5H-4λ4,5λ4-dipyrrolo[1,2-c:2′,1′-f][1,3,2]diazaborinin-3-yl)-N1,N2,N2-tris(pyridin-2-ylmethyl)ethane-1,2-diamine] the “interaction with BSA (in words)” value was “The same interactions can be found”.

In the case of Cc1cc(C)c(C2=C3C=CC(OCCN)=[N+]3[B-](F)(F)n3c2ccc3N(CCN(Cc2ccccn2)Cc2ccccn2)Cc2ccccn2)c(C)c1 [ZincBY-3, N1-(7-(2-aminoethoxy)-5,5-difluoro-10-mesityl-5H-4λ4,5λ4-dipyrrolo[1,2-c:2′,1′-f][1,3,2]diazaborinin-3-yl)-N1,N2,N2-tris(pyridin-2-ylmethyl)ethane-1,2-diamine], the “interaction with BSA (in words)” value is reported as “The same interactions can be found”.

CC(=O)NCCOc1ccc2n1[B-](F)(F)[N+]1=C(N(CCN(Cc3ccccn3)Cc3ccccn3)Cc3ccccn3)C=CC1=C2c1c(C)cc(C)cc1C [ZincBY-4, N-(2-((7-((2-(bis(pyridin-2-ylmethyl)amino)ethyl)(pyridin-2-ylmethyl)amino)-5,5-difluoro-10-mesityl-5H-5λ4,6λ4-dipyrrolo[1,2-c:2′,1′-f][1,3,2]diazaborinin-3-yl)oxy)ethyl)acetamide] was tested, and the “interaction with BSA (in words)” value was “binds readily to the lipid transport protein”, the “fluorescence turn-on in response to zinc in the presence of BSA” value was “two-fold increase in fluorescence intensity over its apo form; also recorded: ca. two-fold” and the polarization (presence of excess BSA) was 0.37. For the same compound, the polarization (without BSA) was 0.03, the “emission maximum in the presence of BSA” value (apo) was 590 nm and the “emission maximum in the presence of BSA” value (holo, excited at 480 nm) was 575 nm.
